Laboratory results published in ChEMBL document CHEMBL4190316, “Synthesis and biological evaluation of 4-biphenylamino-5-halo-2(5H)-furanones as potential anticancer agents” (Eur J Med Chem, 2017).
Blank lines part the entries; values can stand above or below the compound they belong to. The source made the active and inactive calls. The rule behind the calls is not given here.

Columns and labels:
C6 = experiment: Cytotoxicity against rat C6 cells assessed as reduction in cell viability after 72 hrs by MTT assay; type: functional, cell-based; details: C6, 72 h
HaCaT = experiment: Cytotoxicity against human HaCaT cells assessed as reduction in cell viability after 72 hrs by MTT assay; type: cell-based
CNE = experiment: Cytotoxicity against human CNE1 cells assessed as reduction in cell viability after 72 hrs by MTT assay; type: functional, cell-based
[1] = Cytotoxicity against human NCI-EC1 cells assessed as reduction in cell viability after 72 hrs by MTT assay; type: functional, cell-based
MDA-MB-231 = experiment: Cytotoxicity against human MDA-MB-231 cells assessed as reduction in cell viability after 72 hrs by MTT assay; type: functional, cell-based; details: MDA-MB-231, 72 h
MCF7 [2] = experiment: Cytotoxicity against human MCF7 cells assessed as reduction in cell viability after 72 hrs by MTT assay; type: functional, cell-based; details: MCF7, 72 h
HepG2 = experiment: Cytotoxicity against human HepG2 cells assessed as reduction in cell viability after 72 hrs by MTT assay; type: functional, cell-based; details: HepG2, 72 h
[3] = Octanol-water partition coefficient, log P of the compound at 10 mM after 24 hrs by UV-vis spectroscopic method; type: physicochemical
MCF7 [4] = experiment: Cell cycle arrest in human MCF7 cells assessed as accumulation at G1 phase at 10 uM after 72 hrs by propidium iodide staining based flow cytometry (reference value: 66.42%); type: functional
MCF7 [5] = experiment: Cell cycle arrest in human MCF7 cells assessed as accumulation at G1 phase at 20 uM after 72 hrs by propidium iodide staining based flow cytometry (reference value: 66.42%); type: functional
MCF7 [6] = experiment: Cell cycle arrest in human MCF7 cells assessed as accumulation at G1 phase at 40 uM after 72 hrs by propidium iodide staining based flow cytometry (reference value: 66.42%); type: functional
MCF7 [7] = experiment: Cell cycle arrest in human MCF7 cells assessed as accumulation at G2/M phase at 10 uM after 72 hrs by propidium iodide staining based flow cytometry (reference value: 17.99%); type: functional
MCF7 [8] = experiment: Cell cycle arrest in human MCF7 cells assessed as accumulation at G2/M phase at 20 uM after 72 hrs by propidium iodide staining based flow cytometry (reference value: 17.99%); type: functional
MCF7 [9] = experiment: Cell cycle arrest in human MCF7 cells assessed as accumulation at G2/M phase at 40 uM after 72 hrs by propidium iodide staining based flow cytometry (reference value: 17.99%); type: functional
MCF7 [10] = experiment: Cell cycle arrest in human MCF7 cells assessed as accumulation at S phase at 10 uM after 72 hrs by propidium iodide staining based flow cytometry (reference value: 15.59%); type: functional
MCF7 [11] = experiment: Cell cycle arrest in human MCF7 cells assessed as accumulation at S phase at 20 uM after 72 hrs by propidium iodide staining based flow cytometry (reference value: 15.59%); type: functional
MCF7 [12] = experiment: Cell cycle arrest in human MCF7 cells assessed as accumulation at S phase at 40 uM after 72 hrs by propidium iodide staining based flow cytometry (reference value: 15.59%); type: functional
MCF7 [13] = experiment: Cell cycle arrest in human MCF7 cells assessed as accumulation at sub-G1 phase at 10 to 40 uM after 24 to 72 hrs by propidium iodide staining based flow cytometry; type: functional
MCF7 [14] = experiment: Cell cycle arrest in human MCF7 cells assessed as accumulation at G1 phase at 10 uM after 24 hrs by propidium iodide staining based flow cytometry (reference value: 69.92%); type: functional
MCF7 [15] = experiment: Cell cycle arrest in human MCF7 cells assessed as accumulation at G1 phase at 20 uM after 24 hrs by propidium iodide staining based flow cytometry (reference value: 69.92%); type: functional
MCF7 [16] = experiment: Cell cycle arrest in human MCF7 cells assessed as accumulation at G1 phase at 40 uM after 24 hrs by propidium iodide staining based flow cytometry (reference value: 69.92%); type: functional
MCF7 [17] = experiment: Cell cycle arrest in human MCF7 cells assessed as accumulation at G2/M phase at 10 uM after 24 hrs by propidium iodide staining based flow cytometry (reference value: 6.91%); type: functional
MCF7 [18] = experiment: Cell cycle arrest in human MCF7 cells assessed as accumulation at G2/M phase at 20 uM after 24 hrs by propidium iodide staining based flow cytometry (reference value: 6.91%); type: functional
MCF7 [19] = experiment: Cell cycle arrest in human MCF7 cells assessed as accumulation at G2/M phase at 40 uM after 24 hrs by propidium iodide staining based flow cytometry (reference value: 6.91%); type: functional
MCF7 [20] = experiment: Cell cycle arrest in human MCF7 cells assessed as accumulation at S phase at 10 uM after 24 hrs by propidium iodide staining based flow cytometry (reference value: 23.16%); type: functional
MCF7 [21] = experiment: Cell cycle arrest in human MCF7 cells assessed as accumulation at S phase at 20 uM after 24 hrs by propidium iodide staining based flow cytometry (reference value: 23.16%); type: functional
MCF7 [22] = experiment: Cell cycle arrest in human MCF7 cells assessed as accumulation at S phase at 40 uM after 24 hrs by propidium iodide staining based flow cytometry (reference value: 23.16%); type: functional
Quadruplex DNA [23] = experiment: Effect on conformation of c-Myc G-quadruplex DNA (unknown origin) at 1 mM measured every 3 mins by CD spectroscopic analysis; type: nucleic-acid assay
MCF7 [24] = experiment: Induction of apoptosis in human MCF7 cells assessed as live cells at 10 uM after 72 hrs by Annexin-V/PI staining based flow cytometry (reference value: 97.7%); type: functional
MCF7 [25] = experiment: Induction of apoptosis in human MCF7 cells assessed as live cells at 20 uM after 72 hrs by Annexin-V/PI staining based flow cytometry (reference value: 97.7%); type: functional
MCF7 [26] = experiment: Induction of apoptosis in human MCF7 cells assessed as live cells at 40 uM after 72 hrs by Annexin-V/PI staining based flow cytometry (reference value: 97.7%); type: functional
MCF7 [27] = experiment: Induction of apoptosis in human MCF7 cells assessed as early apoptotic cells at 10 uM after 72 hrs by Annexin-V/PI staining based flow cytometry (reference value: 0.28%); type: functional
MCF7 [28] = experiment: Induction of apoptosis in human MCF7 cells assessed as early apoptotic cells at 20 uM after 72 hrs by Annexin-V/PI staining based flow cytometry (reference value: 0.28%); type: functional
MCF7 [29] = experiment: Induction of apoptosis in human MCF7 cells assessed as early apoptotic cells at 40 uM after 72 hrs by Annexin-V/PI staining based flow cytometry (reference value: 0.28%); type: functional
MCF7 [30] = experiment: Induction of apoptosis in human MCF7 cells assessed as late apoptotic cells at 10 uM after 72 hrs by Annexin-V/PI staining based flow cytometry (reference value: 0.60%); type: functional
MCF7 [31] = experiment: Induction of apoptosis in human MCF7 cells assessed as late apoptotic cells at 20 uM after 72 hrs by Annexin-V/PI staining based flow cytometry (reference value: 0.60%); type: functional
MCF7 [32] = experiment: Induction of apoptosis in human MCF7 cells assessed as late apoptotic cells at 40 uM after 72 hrs by Annexin-V/PI staining based flow cytometry (reference value: 0.60%); type: functional
MCF7 [33] = experiment: Induction of apoptosis in human MCF7 cells assessed as necrotic cells at 10 uM after 72 hrs by Annexin-V/PI staining based flow cytometry (reference value: 1.36%); type: functional
MCF7 [34] = experiment: Induction of apoptosis in human MCF7 cells assessed as necrotic cells at 20 uM after 72 hrs by Annexin-V/PI staining based flow cytometry (reference value: 1.36%); type: functional
MCF7 [35] = experiment: Induction of apoptosis in human MCF7 cells assessed as necrotic cells at 40 uM after 72 hrs by Annexin-V/PI staining based flow cytometry (reference value: 1.36%); type: functional
MCF7 [36] = experiment: Induction of apoptosis in human MCF7 cells assessed as live cells at 10 uM after 24 hrs by Annexin-V/PI staining based flow cytometry (reference value: 94.88%); type: functional
MCF7 [37] = experiment: Induction of apoptosis in human MCF7 cells assessed as live cells at 20 uM after 24 hrs by Annexin-V/PI staining based flow cytometry (reference value: 94.88%); type: functional
MCF7 [38] = experiment: Induction of apoptosis in human MCF7 cells assessed as live cells at 40 uM after 24 hrs by Annexin-V/PI staining based flow cytometry (reference value: 94.88%); type: functional
MCF7 [39] = experiment: Induction of apoptosis in human MCF7 cells assessed as early apoptotic cells at 10 uM after 24 hrs by Annexin-V/PI staining based flow cytometry (reference value: 0.13%); type: functional
MCF7 [40] = experiment: Induction of apoptosis in human MCF7 cells assessed as early apoptotic cells at 20 uM after 24 hrs by Annexin-V/PI staining based flow cytometry (reference value: 0.13%); type: functional
MCF7 [41] = experiment: Induction of apoptosis in human MCF7 cells assessed as early apoptotic cells at 40 uM after 24 hrs by Annexin-V/PI staining based flow cytometry (reference value: 0.13%); type: functional
MCF7 [42] = experiment: Induction of apoptosis in human MCF7 cells assessed as late apoptotic cells at 10 uM after 24 hrs by Annexin-V/PI staining based flow cytometry (reference value: 0.96%); type: functional
MCF7 [43] = experiment: Induction of apoptosis in human MCF7 cells assessed as late apoptotic cells at 20 uM after 24 hrs by Annexin-V/PI staining based flow cytometry (reference value: 0.96%); type: functional
MCF7 [44] = experiment: Induction of apoptosis in human MCF7 cells assessed as late apoptotic cells at 40 uM after 24 hrs by Annexin-V/PI staining based flow cytometry (reference value: 0.96%); type: functional
MCF7 [45] = experiment: Induction of apoptosis in human MCF7 cells assessed as necrotic cells at 10 uM after 24 hrs by Annexin-V/PI staining based flow cytometry (reference value: 4.03%); type: functional
MCF7 [46] = experiment: Induction of apoptosis in human MCF7 cells assessed as necrotic cells at 20 uM after 24 hrs by Annexin-V/PI staining based flow cytometry (reference value: 4.03%); type: functional
MCF7 [47] = experiment: Induction of apoptosis in human MCF7 cells assessed as necrotic cells at 40 uM after 24 hrs by Annexin-V/PI staining based flow cytometry (reference value: 4.03%); type: functional
Quadruplex DNA [48] = experiment: Binding affinity to c-Myc G-quadruplex DNA (unknown origin) at 20 uM incubated for 3 mins by electronic absorption spectra method; type: nucleic-acid assay
Quadruplex DNA [49] = experiment: Stabilization of c-Myc G-quadruplex DNA in human MCF7 cells assessed as downregulation of c-Myc protein expression after 72 hrs by Western blot method; type: cell-based
Quadruplex DNA [50] = experiment: Binding affinity to c-Myc G-quadruplex DNA (unknown origin) assessed as hypochromism at 20 uM incubated for 3 mins by electronic absorption spectra method; type: nucleic-acid assay
MCF7 [51] = experiment: Cell cycle arrest in human MCF7 cells assessed as accumulation at G2/M phase after 72 hrs by propidium iodide staining based flow cytometry; type: functional
Quadruplex DNA [52] = experiment: Binding affinity to c-Myc G-quadruplex DNA (unknown origin) at 20 uM incubated for 2 mins by fluorescence emission spectra method; type: nucleic-acid assay

logP at 24 h, 10000 µM [3]: 1.76
Activity (Quadruplex DNA [23]): inactive
K (Quadruplex DNA [48]): 1.6 ×10⁷ /M
Activity (Quadruplex DNA [50]): 28%
Activity (Quadruplex DNA [52]): Active
Compound: CC(=O)OC1OC(=O)C(Br)=C1Nc1ccc(-c2ccc(N)cc2)cc1 (stereo not given)
IC50 (C6): 15.4 µM
IC50 (HaCaT): > 100 µM
IC50 (CNE): 49.4 µM
IC50 [1]: 55.1 µM
IC50 (MDA-MB-231): 33.7 µM
IC50 (MCF7 [2]): 11.8 µM
IC50 (HepG2): 35.3 µM
Activity (MCF7 [4]): 63.91%
Activity (MCF7 [5]): 61.38%
Activity (MCF7 [6]): 44.37%
Activity (MCF7 [7]): 20.53%
Activity (MCF7 [8]): 23.44%
Activity (MCF7 [9]): 35.13%
Activity (MCF7 [10]): 15.56%
Activity (MCF7 [11]): 15.18%
Activity (MCF7 [12]): 20.5%
Activity (MCF7 [13]): inactive
Activity (MCF7 [14]): 66.44%
Activity (MCF7 [15]): 68.3%
Activity (MCF7 [16]): 55.63%
Activity (MCF7 [17]): 9.61%
Activity (MCF7 [18]): 10.59%
Activity (MCF7 [19]): 17.92%
Activity (MCF7 [20]): 23.95%
Activity (MCF7 [21]): 21.11%
Activity (MCF7 [22]): 26.45%
Activity (MCF7 [24]): 95.8%
Activity (MCF7 [25]): 96.19%
Activity (MCF7 [26]): 93.39%
Activity (MCF7 [27]): 0.32%
Activity (MCF7 [28]): 0.55%
Activity (MCF7 [29]): 0.47%
Activity (MCF7 [30]): 0.67%
Activity (MCF7 [31]): 0.67%
Activity (MCF7 [32]): 1.19%
Activity (MCF7 [33]): 3.2%
Activity (MCF7 [34]): 2.59%
Activity (MCF7 [35]): 4.94%
Activity (MCF7 [36]): 96.89%
Activity (MCF7 [37]): 95.21%
Activity (MCF7 [38]): 95.28%
Activity (MCF7 [39]): 0.16%
Activity (MCF7 [40]): 0.13%
Activity (MCF7 [41]): 4.08%
Activity (MCF7 [42]): 0.13%
Activity (MCF7 [43]): 0.07%
Activity (MCF7 [44]): 0.5%
Activity (MCF7 [45]): 2.82%
Activity (MCF7 [46]): 4.59%
Activity (MCF7 [47]): 0.14%
Activity (Quadruplex DNA [49]): Dose-dependent effect
Activity (MCF7 [51]): Dose-dependent effect

logP at 24 h, 10000 µM [3]: 0.913
Compound: COC1OC(=O)C(Cl)=C1Nc1ccc(-c2ccc(N)cc2)cc1 (stereo not given)
IC50 (C6): 64.8 µM
IC50 (HaCaT): > 100 µM
IC50 (CNE): > 100 µM
IC50 [1]: > 100 µM
IC50 (MDA-MB-231): > 100 µM
IC50 (MCF7 [2]): > 100 µM
IC50 (HepG2): > 100 µM
